Experiments:
Test in all cases: Antimicrobial activity, agar diffusion technique
Assay type in all cases: cell-based
[1] = test system: Staphylococcus epidermidis (RCMB 010024)
[2] = test system: Staphylococcus aureus (RCMB 010027)
[3] = test system: Streptococcus pyogenes (RCMB 010015)
[4] = test system: Candida albicans (RCMB 05036)
[5] = test system: Absidia corymbifera (RCMB 02564)
[6] = test system: Geotricum candidum (RCMB 05097)
[7] = test system: Proteous vulgaris (RCMB 010085)
[8] = test system: Klebsiella pneumoniae (RCMB 0010093)
[9] = test system: Salmonella enteritidis(RCMB 010084)

`CC1(C)S[C@@H]2[C@H](NC(=O)[C@H](N)c3ccccc3)C(=O)N2[C@H]1C(=O)O` [Ampicillin] was tested, and the “Zone of Inhibition (±S.D.)” value [1] was 25.0 ± 0.18, the “Zone of Inhibition (±S.D.)” value [2] was 27.3 ± 0.14 and the “Zone of Inhibition (±S.D.)” value [3] was 26.3 ± 0.34.

With `C[C@@H]1[C@H](O)[C@@H](C)/C=C/C=C/C=C/C=C/C=C/C=C/C=C/[C@H](O[C@@H]2O[C@H](C)[C@@H](O)[C@H](N)[C@@H]2O)C[C@@H]2O[C@](O)(C[C@@H](O)C[C@@H](O)[C@H](O)CC[C@@H](O)C[C@@H](O)CC(=O)O[C@H]1C)C[C@H](O)[C@H]2C(=O)O` [Amphotericin B] the “Zone of Inhibition (±S.D.)” value [4] was 25.7 ± 0.10, the “Zone of Inhibition (±S.D.)” value [5] was 23.0 ± 0.10 and the “Zone of Inhibition (±S.D.)” value [6] was 27.0 ± 0.20.

For Gentamycin, the “Zone of Inhibition (±S.D.)” value [7] was 23.4 ± 0.30, the “Zone of Inhibition (±S.D.)” value [8] was 26.4 ± 0.15 and the “Zone of Inhibition (±S.D.)” value [9] was 25.2 ± 0.18.
